Experimental data published in patent US12653821B2 (SHANGHAI BOCIMED PHARMACEUTICAL CO., LTD., priority 2020, dated 2026).
Converted amounts (≈) assume the structure as drawn.

What was measured:
[1] = physchem; details: 37 °C, thermodynamic from solid
Experimental: The mixtures were shaken at 37° C. for 24 h and filtered through 0.45 μm aqueous-phase filter membranes. The filtrates were collected and the solubility was determined by high performance liquid chromatography. pH3, pH4, pH5 and pH6 represent acetate buffer solutions, and pH7, pH7.4, pH8 and pH9 represent phosphate buffer solutions.

[2] = humans; cited from earlier work
[3] = In vitro dissolution simulation experiment, pH 7.4 phosphate buffer; format: physicochemical; details: 37° C.
Experimental: The mixtures were shaken at 37° C.

[4] = Pharmacokinetic experiment in rats (plasma cariprazine, LC-MS/MS); details: intramuscular injection at 9 mg/kg
Experimental: In the whole experiment, the animals from the intramuscular injection group were given ad libitum access to food and water, and those from the oral intragastrical group were fasted overnight before administration and given access to food 4 h after administration.
Plasma sample collection: about 150 μL of blood was collected from the jugular vein (whole blood was centrifuged within 30 min to isolate plasma) and placed in a tube containing anticoagulant EDTA-K2, and after treatment, plasma was stored in a freezer at −70° C. before use.
Pretreatment of plasma sample: to 30 μL of plasma sample was added 200 μL of internal standard solution (40 ng/mL Glipizide acetonitrile solution); the mixture was vortexed for 1 min and centrifuged at 5800 rpm at 4° C. for 10 min; 100 μL of supernatant was transferred to a new plate and 1 μL of solution was taken for LC-MS/MS analysis.
Secondary mass spectrometry analysis was performed using an electrospray ion source (Turbo spray) in the multiple reaction monitoring (MRM) mode under the positive ion detection mode.

SMILES | solubility at 24 h ([1]; pH 5, aqueous buffer) [µg/mL] | solubility at 24 h ([1]; pH 3, aqueous buffer) [µg/mL] | solubility at 24 h ([1]; pH 7, aqueous buffer) [µg/mL] | solubility at 24 h ([1]; pH 9, aqueous buffer) [µg/mL] | cariprazine clearance [2] [days] | Concentration, 1 (h) [3] [µg/mL] | Concentration, 5 (h) [3] [µg/mL] | Concentration, 7 (h) [3] [µg/mL] | Concentration, 24 (h) [3] [µg/mL] | length of release among the crystalline forms [4]
CN(C)C(=O)N[C@H]1CC[C@H](CCN2CCN(c3cccc(Cl)c3Cl)CC2)CC1.Cl [Cariprazine hydrochloride] | 10800 | – | – | – | – | – | – | – | – | –
CN(C)C(=O)N[C@H]1CC[C@H](CCN2CCN(c3cccc(Cl)c3Cl)CC2)CC1 [Cariprazine, cariprazine] | 243 (≈ 568 µM) | 1360 (≈ 3190 µM) | 3.2 (≈ 7.49 µM) | 1.4 (≈ 3.28 µM) | 3 to 9 | – | – | – | – | –
CN(C)C(=O)NC1CCC(CCN2CCN(c3cccc(Cl)c3Cl)CC2)CC1 (centres unmarked) [Crystalline form B of cariprazine embonate] | – | – | – | – | – | 5.3 | 5.2 | 2.2 | 1.7 | –
CN(C)C(=O)NC1CCC(CCN2CCN(c3cccc(Cl)c3Cl)CC2)CC1 (centres unmarked) [Crystalline form G of cariprazine embonate] | – | – | – | – | – | 1.30 | 2.28 | 1.84 | 8.05 | –
CN(C)C(=O)NC1CCC(CCN2CCN(c3cccc(Cl)c3Cl)CC2)CC1 (centres unmarked) [Crystalline form A of cariprazine embonate] | – | – | – | – | – | 1.0 | 4.1 | 3.9 | 2.5 | best length of release
CN(C)C(=O)NC1CCC(CCN2CCN(c3cccc(Cl)c3Cl)CC2)CC1 (centres unmarked) [Amorphous cariprazine embonate, cariprazine embonate] | – | – | – | – | – | 11.94 | 9.58 | 7.08 | 9.9 | –
